Experiment: refractive index (Na D-line) (dimensionless); xn = mol fraction of the nth substance listed
Details: 101 kPa, Liquid, Standard Abbe refractometry

CCOC(=O)C(C)O (stereo not drawn) [DL-ethyl lactate] + OCCCO
refractive index
Details | x1 = 0.1001 | x1 = 0.2001 | x1 = 0.3 | x1 = 0.3998 | x1 = 0.4996 | x1 = 0.5997 | x1 = 0.7 | x1 = 0.8 | x1 = 0.8997 | x1 = 1
288.15 K | 1.43819 | 1.43549 | 1.43282 | 1.43021 | 1.42764 | 1.4251 | 1.42262 | 1.42017 | 1.41776 | 1.41537
293.15 K | 1.43668 | 1.43388 | 1.43111 | 1.4284 | 1.42573 | 1.42312 | 1.42055 | 1.41803 | 1.41554 | 1.41307
298.15 K | 1.43517 | 1.43227 | 1.4294 | 1.42658 | 1.42383 | 1.42114 | 1.41851 | 1.41592 | 1.41336 | 1.41076
303.15 K | 1.43362 | 1.43062 | 1.42766 | 1.42476 | 1.42192 | 1.41914 | 1.4164 | 1.41371 | 1.41107 | 1.40843
308.15 K | 1.43214 | 1.42902 | 1.42592 | 1.42292 | 1.41996 | 1.41713 | 1.41427 | 1.41152 | 1.40882 | 1.4061
313.15 K | 1.43065 | 1.42743 | 1.42421 | 1.42111 | 1.41805 | 1.41506 | 1.41215 | 1.40932 | 1.40654 | 1.40374
318.15 K | 1.42914 | 1.4258 | 1.42249 | 1.41923 | 1.41608 | 1.41301 | 1.41004 | 1.40715 | 1.40428 | 1.40136
323.15 K | 1.42761 | 1.42417 | 1.42075 | 1.41741 | 1.41415 | 1.41097 | 1.40792 | 1.40493 | 1.40198 | 1.39898

CCOC(=O)C(C)O (stereo not drawn) [DL-ethyl lactate] + CC(O)CO
refractive index
Details | x1 = 0.1 | x1 = 0.2 | x1 = 0.3 | x1 = 0.3999 | x1 = 0.4998 | x1 = 0.599 | x1 = 0.6999 | x1 = 0.7994 | x1 = 0.8997 | x1 = 1
288.15 K | 1.43169 | 1.42919 | 1.42688 | 1.42476 | 1.42287 | 1.42116 | 1.41959 | 1.41814 | 1.41676 | 1.41537
293.15 K | 1.42994 | 1.42736 | 1.42499 | 1.4228 | 1.42086 | 1.4191 | 1.41747 | 1.41597 | 1.41452 | 1.41307
298.15 K | 1.42819 | 1.42554 | 1.42309 | 1.42085 | 1.41883 | 1.41701 | 1.41532 | 1.41377 | 1.41227 | 1.41076
303.15 K | 1.42642 | 1.42369 | 1.42118 | 1.41886 | 1.41679 | 1.41491 | 1.41316 | 1.41155 | 1.40999 | 1.40843
308.15 K | 1.42461 | 1.42181 | 1.41924 | 1.41688 | 1.41475 | 1.41282 | 1.41102 | 1.40935 | 1.40773 | 1.4061
313.15 K | 1.42279 | 1.41992 | 1.41729 | 1.41488 | 1.4127 | 1.41071 | 1.40884 | 1.40711 | 1.40542 | 1.40374
318.15 K | 1.42098 | 1.41801 | 1.41529 | 1.41282 | 1.41055 | 1.4085 | 1.40659 | 1.40481 | 1.40309 | 1.40136
323.15 K | 1.41918 | 1.41615 | 1.41337 | 1.41082 | 1.40849 | 1.40637 | 1.40437 | 1.40252 | 1.40073 | 1.39898
